Source: US20260232709A1, “COMPOSITION COMPRISING MELOSIDE FOR ALLEVIATING HAIR LOSS AND IMPROVING HAIR GROWTH” (MORECHEM CO., LTD., priority 2024, published 2026)
Entries after “also recorded” stand apart in the source; their conditions may differ.

Assays:
[1] = test system: human outer root sheath cells (ORS); test: Cytotoxicity / growth-proliferation of outer root sheath cells (CCK-8); assay type: cell-based; details: 10, 30, 50, 100 ppm, 1 day, CCK-8, 450 nm, FIG. 2
Method: Human Hair Outer Root Sheath Cells (ORS), used in the test examples described below, were cultured in culture plates coated with Poly-L-Lysine, using Mesenchymal Stem Cell Medium (MSCM, ScienCell) supplemented with 5% Fetal Bovine Serum (FBS, ScienCell), 1% Mesenchymal stem cell growth supplement (MSCGS, ScienCell), and antibiotics (Penicillin-Streptomycin, ScienCell) as the culture medium, in an incubator at 37° C., 5% CO2, and humid conditions.
Specifically, after treating human dermal papilla cells (HDPC) or human outer root sheath cells (ORS) with Meloside A or Meloside L at concentrations of 10, 30, 50, and 100 ppm for 1 day, CCK-8 (Cell Counting Kit-8, Dojindo, EU) reagent was added to the treated HDPC according to the manufacturer's protocol. Absorbance was then measured at a wavelength of 450 nm using a microplate reader (BioTeK, USA), and the extent of HDPC growth/proliferation by Meloside treatment was compared and confirmed against the negative control group (treated with DMEM instead of Meloside A or L).

[2] = test system: Androgen Receptor (AR); test: Androgen receptor expression in DHT-treated HDPC (Western blot); assay type: cell-based, human; details: HDPC pre-treated with 1 μM DHT, 30 or 100 ppm, 1 day, FIGS. 3 and 4
Method: Human hair dermal papilla cells (HDPC), used in the test examples described below, were cultured in Dulbecco's Modified Eagle Medium (DMEM, WELGENE) supplemented with 10% Fetal Bovine Serum (FBS, WELGENE) and 1% antibiotics (Penicillin-Streptomycin, WELGENE) as the culture medium, in an incubator at 37° C., 5% CO2, and humid conditions.
Specifically, the following groups were prepared: (i) a negative control group, where neither Dihydrotestosterone (DHT) nor Meloside A and L were treated on human dermal papilla cells (HDPC); (ii) an untreated group, where 1 μM DHT was treated on HDPC, but neither Meloside A nor L was treated; (iii) a positive control group, where 1 μM DHT was treated on HDPC, followed by treatment with 100 μM Minoxidil instead of Meloside A and L; and (iv) a treated group, where HDPC were first treated with 1 μM DHT to activate androgen receptors, and then treated with Meloside A or L at concentrations of 30 or 100 ppm, respectively, for 1 day. After preparation, the HDPC from (i) to (iv) were lysed, and the increase or decrease in the expression level of Androgen Receptor (AR) was confirmed using the Western blot technique. Here, for the analysis of relative expression patterns for each sample, the expression level was normalized based on the expression level of Actin. […]

[3] = test system: dermal papilla cells (HDPC); test: Protection against DKK1-induced death of dermal papilla cells (CCK-8); assay type: cell-based, human; details: 30 or 100 ppm for 1 day, then DKK1, FIG. 10
Method: Specifically, HDPC were treated with Meloside A or L at concentrations of 30 or 100 ppm, respectively, for 1 day, and then cell death was induced with DKK1 (dickkopf WNT signaling pathway inhibitor 1). For comparison, HDPC that were neither treated with Meloside A or L nor with DHT were used as the negative control group. HDPC treated with DHT but without Meloside A and L were used as the untreated group. HDPC treated with 100 μM Minoxidil or 5 mM NAC followed by DHT treatment were used as the positive control group.
(§1) CCK-8 (Cell Counting Kit-8, Dojindo, EU) reagent was added to the HDPC according to the manufacturer's protocol, and absorbance was measured at a wavelength of 450 nm using a microplate reader (BioTeK, USA) to confirm the cell viability of dermal papilla cells because of Meloside treatment, compared to the negative control group (treated with DMEM instead of Meloside A or L).

[4] = test system: IL-6 (Interleukin 6); test: IL-6 expression in DHT-treated HDPC supernatant (ELISA); assay type: cell-based, human; details: HDPC treated with 100 μg/mL DHT, 30 or 100 ppm, 1 day, FIG. 11
Method: Specifically, the following groups were prepared: (i) a negative control group, where neither Dihydrotestosterone (DHT) nor Meloside A and L were treated on human dermal papilla cells (HDPC); (ii) an untreated group, where 100 μg/mL DHT was treated on HDPC, but neither Meloside A nor L was treated; (iii) a positive control group, where HDPC were treated with 100 μM Minoxidil or 20 μM Dexamethasone (DEX); and (iv) a treated group, where HDPC were first treated with 100 μg/mL DHT to increase IL-6 expression, and then treated with Meloside A or L at concentrations of 30 or 100 ppm, respectively, for 1 day. After preparation, the cell supernatants from HDPC of (i) to (iv) were obtained, and the increase or decrease in the expression level of IL-6 (Interleukin 6) was confirmed using an Enzyme-Linked Immunosorbent Assay (ELISA). For the analysis of expression patterns for each sample, normalization was performed based on a standard sample of IL-6, and the results are shown in FIG. 11.

[5] = test system: dermal papilla cells (HDPC); test: Protection against DHT-induced death of dermal papilla cells (CCK-8); assay type: cell-based, human; details: 30 or 100 ppm for 1 day, then DHT, FIG. 9
Method: Specifically, HDPC were treated with Meloside A or L at concentrations of 30 or 100 ppm, respectively, for 1 day, and then cell death was induced with Dihydrotestosterone (DHT), For comparison, HDPC that were neither treated with Meloside A or L nor with DHT were used as the negative control group. HDPC treated with DHT but without Meloside A and L were used as the untreated group. HDPC treated with 100 μM Minoxidil or 5 mM NAC (N-acetyl cysteine) followed by DHT treatment were used as the positive control group.
as §1

| SMILES | cell growth/proliferation (cytotoxicity) of ORS vs negative control [1] | androgen receptor (AR) expression level, normalized to Actin [2] | cell protective effect against DKK1 (cell viability) [3] | IL-6 expression level [4] | cell protective effect against DHT (cell viability) [5] |
| --- | --- | --- | --- | --- | --- |
| O=c1cc(-c2ccc(O)c(O)c2)oc2cc(O)c([C@@H]3O[C@H](CO)[C@@H](O)[C@H](O)[C@H]3O[C@@H]3O[C@H](CO)[C@@H](O)[C@H](O)[C@H]3O)c(O)c12 [Meloside L, isoorientin 2″-O-glucoside] | comparable levels of cell growth/proliferation to the negative control group | concentration-dependent | no cell protective effect against DKK1 was observed | no IL-6 expression reduction effect was observed | no cell protective effect against DHT was observed |
| O=c1cc(-c2ccc(O)cc2)oc2cc(O)c([C@@H]3O[C@H](CO)[C@@H](O)[C@H](O)[C@H]3O[C@@H]3O[C@H](CO)[C@@H](O)[C@H](O)[C@H]3O)c(O)c12 [Meloside A, isovitexin 2″-O-glucoside] | comparable levels of cell growth/proliferation to the negative control group | concentration-dependent; also recorded: superior effect in decreasing the expression level of androgen receptor (AR) compared to Meloside L | cell protective effect against DKK1 was confirmed | decrease in IL-6 expression | cell protective effect against DHT was confirmed |
